# Article PMC8603350, “A Remote Secondary Binding Pocket Promotes Heteromultivalent Targeting of DC-SIGN” (Journal of the American Chemical Society, 2021)
# Changes are numbered by the printed parent chain. Entries after “also recorded” stand apart in the source; their conditions may differ.
# How the values were obtained:
# [1] = target: T1, DC-SIGN ECD (Homo sapiens, UniProt Q9NNX6); test: 19F NMR reporter displacement assay transferred to DC-SIGN ECD; format: binding; details: 0.1 mM reporter 49; for 48 estimated, receptor precipitation above 1 mM
# T1 construct: DC-SIGN extracellular domain (ECD); made in house; host or cells: E. coli BL21(DE3), pET30b; gene from GenScript
# T1 sequence (Q9NNX6 59-404 limits assumed): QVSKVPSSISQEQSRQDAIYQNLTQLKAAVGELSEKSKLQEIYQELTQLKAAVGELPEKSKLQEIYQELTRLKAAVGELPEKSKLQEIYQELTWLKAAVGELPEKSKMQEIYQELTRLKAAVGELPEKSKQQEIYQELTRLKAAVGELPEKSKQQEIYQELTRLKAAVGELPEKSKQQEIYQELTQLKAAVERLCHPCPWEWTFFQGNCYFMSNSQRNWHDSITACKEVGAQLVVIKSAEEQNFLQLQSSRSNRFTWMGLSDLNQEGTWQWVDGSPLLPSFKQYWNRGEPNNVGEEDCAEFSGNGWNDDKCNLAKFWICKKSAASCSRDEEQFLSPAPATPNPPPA
# [2] = target: T1, DC-SIGN ECD; test: Direct 19F R2-filtered NMR binding experiments (CF3 resonance)
# Description: KI values were determined as previously described for Langerin and the DC-SIGN CRD.6 Briefly, competitive binding experiments were conducted with 49 at a concentration of 0.1 mM and varying competitor concentrations [I]T. KI and [P]T values were derived from Equation 8 in a two-parameter fit.
# R2,obs = R2,f + (R2,b − R2,f)pb […]
# θ = cos−1 ( ) ,a = KD + KI + [L]T + [I]T − [P]T
# b = ([I]T − [P]T)KD + ([L]T − [P]T)KD + KIKD, c = −KIKD[P]T
# KD determination from 19F NMR CSPs
# For KD determination from 19F NMR CSPs, samples and measurements were set up as described for 19F R2-filtered NMR but at a single relaxation time T = 0 s. CSP 19F, T were calculated from the chemical shift of the 19F resonance of 48 in the presence of protein δT at increasing ligand concentrations and the chemical shift in absence of protein δf at a concentration of 1 mM via Equation 4.
# The KD value was calculated from CSP19F, T values in a two -parameter fit using Equation 10, using a fixed protein concentration [P] T and a CSP19F of 0 ppm as a lower bound. CSP19F,b corresponds to the top asymptote and was kept variable. As in Equation 9, pb represents the fraction of bound protein.
# [3] = target: T1, DC-SIGN ECD; test: KD determination from 19F NMR CSPs; format: binding; details: direct observation of CF3 chemical shift; read-out: KD (19F CSP)
# [4] = target: T2, DC-SIGN CRD (Homo sapiens, UniProt Q9NNX6); test: 15N HSQC NMR titration; format: binding; details: 10 mM CaCl2, MES pH 6.0
# T2 construct: His-tagged DC-SIGN CRD wild-type as well as the M270F mutant; His-tag; made in house; host or cells: E. coli BL21(DE3), pET28a; gene from GenScript
# T2 sequence (Q9NNX6 263-378 limits assumed): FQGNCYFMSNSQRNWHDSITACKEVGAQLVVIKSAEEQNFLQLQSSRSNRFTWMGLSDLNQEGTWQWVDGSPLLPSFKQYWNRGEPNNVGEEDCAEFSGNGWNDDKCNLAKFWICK
# [5] = target: T3, DC-SIGN CRD M270F (Homo sapiens, UniProt Q9NNX6, M270F); test: 15N HSQC NMR binding experiments with M270F mutant; details: absence of Ca2+
# T3 construct: His-tagged DC-SIGN CRD wild-type as well as the M270F mutant; His-tag; made in house; host or cells: E. coli BL21(DE3), pET28a; gene from GenScript
# T3 sequence (Q9NNX6 263-378 M270F limits assumed): T2 sequence (Q9NNX6 263-378 limits assumed) with M8F
# [6] = system: DC-SIGN+ Raji cells; test: Liposome binding assay, flow cytometry; format: cell-based
# Description: If not stated otherwise, all media and supplements for cell culture experiments were purchased from Thermo Fisher Scientific. Raji, THP-1 and U937 cell lines (ATCC) were grown in complete growth medium containing RPMI1640 medium, 10% FCS, 100 U mL-1 Penicillin-Streptomycin and GlutaMax at 37°C and 5% CO2. Cells were monitored with a light microscope (IT40 5PH, VWR) and subcultured every 2 -3 days to maintain cell densities ranging from of 0.5 - 3 x 10^6 cells per mL.
# CLR-expressing cell lines were generated as described before.4,27 Briefly, DC-SIGN, Langerin, murine Langerin and murine Dectin-1 cDNAs (Sinobiologicals) were cloned into a lentiviral BIC-PGK-Zeo-T2a-mAmetrine:EF1A construct by Gibson assembly (NEB) according to the manufacturer’s protocol. HEK293 cells were transfected with the lentiviral vector together with third-generation packaging vectors and viral particles were then used for transduction of Raji cells. In analogy, DC-SIGN and Langerin-expressing THP-1 and U937 cell lines were generated by lentiviral transduction.
# Liposome binding assay – flow cytometry
# Liposome binding to CLR-expressing cells was assayed as previously described.27 Briefly, 0.05 x 10^6 cells were plated in transparent conical-bottom 96 well microtiter plates (Nunc) in a volume of 100 µL medium. Plates were centrifuged at 500 x g for 3 minutes, supernatant was aspirated, and cells were resuspended in 100 µL medium, containing 16 µM liposomes. In control experiments, cells were incubated with medium containing 10 mM EDTA or 50 µg mL-1 mannan for 15 min at 4 °C, prior to liposome application. After 1 h incubation at 4 °C in the dark, cells were centrifuged at 500 x g for 3 min and the supernatant was discarded. Cells wer e resuspended in 200 µL ice-cold medium and analyzed by detecting the co-formulated Alexa 647 dye via flow cytometry with a 654 nm laser and a 670/14 nm filter (Attune Nxt, life technologies).
# Flow cytometry data was processed using FlowJo (BD Bioscience). Mean fluorescence intensity (MFI) was further analyzed and plotted using GraphPad Prism (GraphPad […]
# To monitor allosteric activation of DC-SIGN by glycomimetic 48, the described protocol was adjusted as follows. DC-SIGN+ Raji cells were plated in transparent conical-bottom 96 well microtiter plates (Nunc) in a volume of 100 µL medium. Plates were centrifuged at 500 x g for 3 minutes, supernatant was aspirated, and cell were resuspended in 25 µL medium supplemented with varying concentrations of monovalent carbohydrates or 0.5 mM 48. Homomultivalent liposomes carrying either natural carbohydrates or 48 were added at a final concentration of 16 µM. Liposome binding was subsequently quantified by measuring Alexa 647 fluorescence in flow cytometry experiments. Statistical significance by means of a student’s t-test was assessed based on averaged normalized MFIs from four biological replicates each conducted as technical duplicates. A p-value < 0.05 was set as significance cut-off.
compound,measurement,setting,value
NC[C@H]1O[C@H](Oc2ccc(-c3ccc(C(=O)O)cc3)cc2C(F)(F)F)[C@@H](O)[C@@H](O)[C@@H]1O [compound 48],Ki,[1],1150 ± 10 µM
same,Kd,"[2]; direct observation of CF3 relaxation rate R2,obs",480 ± 100 µM
same,apparent KD values lower than the determined KI,[2]; direct-binding NMR KD vs RDA KI,about 3 fold
same,Kd,[3],370 ± 60 µM
same,Kd,[4],460 ± 160 µM
same,binding to M270F mutant,[5],abrogation of 48-binding
same,effect of soluble compound on binding of Fuc-Lip liposomes,"[6]; 0.5 mM soluble 48, liposomes with 2.5 mol % Fuc-Lip, p < 0.05, n = 4",significantly enhances; also recorded: significantly increased
same,binding of homomultivalent liposomes,"[6]; 42-Lip up to 1.26%, 48 up to 1.66% total lipid concentration",does not show any binding
same,molar glycomimetic/Man ratio around which the cooperative binding effect saturates,[6]; heteromultivalent liposomes with Man-Lip,~0.5
